The results in this text go back to patent US10435361B2, “Kinase inhibitors” (Topivert Pharma Limited, priority 2013, dated 2019).

Data set [1] deals with PBMCs. Put plainly: LPS-induced TNFα/IL-8 release in PBMC cells. Type of data set: cell-based. To be noted: Homo sapiens, assay (b), read-out: IC50 Values for Inhibition of Cytokine Release PBMCs IL-8. The procedure, abridged:
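Healthy-donor PBMCs isolated by density gradient were pretreated with compound for 2 h, then stimulated with 1 ng/mL LPS (E. coli 0111:B4) for 24 h at 37° C., 5% CO2. IL-8 and TNFα in supernatants measured by sandwich ELISA.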

Data set [2] relates to PBMCs. Put plainly: IL-2 and IFN gamma release in CD3/CD28 stimulated PBMC cells. Type of data set: cell-based. To be noted: Homo sapiens, assay (c). An outline of the steps:
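Healthy-donor PBMCs, density-gradient isolated, stimulated on plates pre-coated with anti-CD3 (0.3 μg/mL) and anti-CD28 (3 μg/mL) antibodies, with compound, for 3 days under standard culture conditions. IC50 derived from the dose-response curve.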

Data set [3] has as its system HT29 cells. Put plainly: IL-1β-induced IL-8 release in HT29 cells. It counts as cell-based. To be noted: Homo sapiens, HT-29, assay (d), read-out: IC50 Values for Inhibition of Cytokine Release HT29 cells IL-8. As to the method: HT29 cells, a human colon adenocarcinoma cell line, are plated in a 96 well plate (24 hr) and pre-treated with compounds at the desired concentration for 2 hours before addition of 5 ng/mL of IL-1β (Abcam) for 24 hours. Supernatants are harvested for IL-8 quantification by Sandwich ELISA (Duo-set, R&D System). The IC50 is determined from the dose response curve.

The test system of data set [4] is PBMCs. Put plainly: Cell mitosis assay in PBMCs. Type of data set: cell-based. To be noted: Homo sapiens, PBMC, 5 μg/mL. The procedure, abridged:
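Human PBMCs from healthy donors, density-gradient isolated, stimulated with 2% PHA 48 h, then exposed 20 h to test compounds; demecolcine 0.1 μg/mL added 2 h before harvest. Fixed/permeabilised cells stained for phospho-histone H3 and propidium iodide; mitotic lymphocytes counted by flow cytometry.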

Data set [5] concerns Lewis rats. Nature of the data set: Endotoxin-induced uveitis in rats. It counts as in vivo. The conditions noted are these: rats treated with intravitreal endotoxin LPS. The protocol:
Male, Lewis rats (6-8 weeks old, Charles River UK Limited) are housed in cages of 3 at 19-21° C. with a 12 h light/dark cycle (07:00/19:00) and fed a standard diet of rodent chow and water ad libitum. Non-fasted rats are weighed, individually identified on the tail with a permanent marker, and receive a single intravitreal administration into the right vitreous humor (5 μL dose volume) of 100 ng/animal of LPS (Escherichia coli 0111:B4 prepared in PBS, Sigma Aldrich, UK) using a 32-gauge needle. Untreated rats are injected with PBS. Test compound, dexamethasone (Dex) or vehicle (20% hydroxypropyl-β-cyclodextrin, 0.1% HPMC, 0.01% Benzalkonium chloride, 0.05% EDTA, 0.7% NaCl in deionised water) are administered by the topical route onto the right eye (10 μL) of animals 30 minutes prior to LPS, at the time of LPS administration, and 1, 2 and 4 hours post LPS administration. Before administration, the solution or suspension to be administered is agitated for 5 minutes to ensure a uniform suspension. 6 hours after LPS dosing, animals are euthanized by overdose with pentobarbitone (i.v.). Following euthanasia, the right eye of each animal is enucleated and dissected into front (anterior) and back (posterior) sections around the lens. Each section is weighed and homogenised in 500 μL of sterile phosphate buffered saline followed by 20 minutes centrifugation at 12000 rpm at 4° C. The resulting supernatant is divided into 3 aliquots and stored at −80° C. until subsequent cytokine analysis by R&D DuoSet ELISA.

Data set [6] in a line: Plasma pharmacokinetics in rats, single intravenous or oral administration. Type of data set: in vivo. The conditions noted are these: male, Wistar, rat, rats, intravenous 0.25 mg/kg. The protocol: Studies were conducted by Sai Life Sciences (Hinjewadi, Pune, India) to investigate the plasma pharmacokinetics and total colon tissue distribution of compounds of the invention. In particular, pharmacokinetic studies were carried out in: • male C57BL/6 mice, following a single oral administration; and • male Wistar rats following a single intravenous or oral administration.

The subject of data set [7] is BDF1 mice. Put plainly: TNBS-induced colitis in mice. To be noted: conducted over 2 days; vehicle corn oil/transcutol/maisine/cremophor ELP. It counts as in vivo. The protocol: Non-fasted, 10-12 week old, male BDF1 mice are dosed by oral gavage twice daily with either vehicle (5 mL/kg), reference item (Budesonide 2.5 mg/kg) or test compound (1 or 5 mg/kg) one day before (Day −1) stimulation of the inflammatory response by treatment with 2,4,6-trinitrobenzenesulphonic acid (TNBS) (15 mg/mL in 50% ethanol/50% saline). On Day 0 of the study TNBS (200 μL) is administered intra-colonically via a plastic catheter with BID dosing of the vehicle, reference or test compound continuing for 2 or 4 days. During the study, animals are weighed every day and stool observations are made and recorded as a score, based on stool consistency. At the time of sacrifice on Day 2 (or Day 4), the large intestine is removed and the length and weight recorded. Sections of the colon are taken for histopathology scoring to determine disease severity.

Data set [8] concerns Salmonella typhimurium TA98. Nature of the data set: Bacterial reverse mutation screen, strain TA98. Type of data set: cell-based. To be noted: presence or absence of S-9 mix; up to 1000 μg/plate analysable. The protocol:
(§1) Studies were conducted by Sequani (Ledbury, Herefordshire, UK) to assess compounds of the invention for their ability to induce mutations in two histidine dependent auxotrophic mutants of Salmonella typhimurium, strains TA98 and TA100 in vitro.
(§2) The mutation screen was conducted using the plate incorporation method and was performed in both the presence and absence of S-9 mix (a liver post-mitochondrial fraction derived from the livers of Aroclor 1254 treated rats). The bacteria were exposed to test compounds dissolved in dimethylsulphoxide, which solvent was also used as the negative control. The dose levels used were 0.32, 1.6, 8, 40, 200, 1000 or 5000 μg/plate.
(§3) Precipitation was also noted in both strains at 1000 μg/plate in the presence and absence of S-9 mix.

In data set [9] the test system is Salmonella typhimurium TA100. Put plainly: Bacterial reverse mutation screen, strain TA100. Type of data set: cell-based. To be noted: presence or absence of S-9 mix; up to 1000 μg/plate analysable. The protocol: as §1, §2, §3
A short description of data set [10]: Hydrolytic stability study (DMSO/water 3:1, 60° C.). It counts as physicochemical. As to the method:
Chemical stability of compounds of the invention was assessed in a mixture of DMSO and water (3:1) at a test compound concentration of 1 mg/mL
Agilent, Waters X-Select C18, 2.5 μm, 4.6×30 mm column, 4 min method, 5-95%
MeCN/water (0.1% formic acid).
Column Oven Temperature 40° C.
Sample Preparation • A 1.0 mg sample of test compound was dissolved in 750 μL of DMSO. Water (250 μL) was added slowly, ensuring no precipitation occurred.
Recording Stability • A 50 μL aliquot of the test solution was removed and analysed in duplicate by 5 μL HPLC injections. The peak area for the test compound was recorded following manual integration of the corresponding UV trace. • The test solution was heated to 60° C., with stirring, and 50 μL aliquots removed for HPLC analysis at 5 and 24 h timepoints.

Data set [11] deals with CYP2C9 (Homo sapiens (Human), UniProt P11712). Nature of the data set: CYP2C9 inhibition studies. Type of data set: in vitro ADME. To be noted: inhibition at 5 μM reported instead of 15 μM (precipitation). The protocol: Assessment of certain in vitro ADME (absorption, distribution, metabolism, and excretion) parameters for certain compounds of the invention was conducted by BioFocus (Saffron Walden, UK).
Sequence of CYP2C9 (P11712 whole entry): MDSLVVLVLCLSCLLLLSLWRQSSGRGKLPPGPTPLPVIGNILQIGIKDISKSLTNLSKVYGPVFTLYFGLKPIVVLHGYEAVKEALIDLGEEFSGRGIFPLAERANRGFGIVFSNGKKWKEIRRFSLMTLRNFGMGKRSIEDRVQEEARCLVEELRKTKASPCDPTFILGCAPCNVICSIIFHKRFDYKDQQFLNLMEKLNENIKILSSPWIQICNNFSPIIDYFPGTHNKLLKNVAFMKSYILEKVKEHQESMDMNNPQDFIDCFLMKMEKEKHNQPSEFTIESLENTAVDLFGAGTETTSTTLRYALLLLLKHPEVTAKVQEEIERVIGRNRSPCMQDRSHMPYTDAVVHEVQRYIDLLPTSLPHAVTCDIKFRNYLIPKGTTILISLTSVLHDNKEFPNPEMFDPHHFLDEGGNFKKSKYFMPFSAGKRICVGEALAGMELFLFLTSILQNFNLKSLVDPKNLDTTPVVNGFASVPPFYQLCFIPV

[12] abbreviates: read-out: IC50 Values for Inhibition of Cytokine Release PBMCs IFNγ.
Where [13] appears, read: read-out: IC50 Values for Inhibition of Cytokine Release PBMCs IL-2.

For orientation: IC50 means the concentration that inhibits the measured activity by half. As a reminder, the inhibition is the percentage by which the read-out fell short of the control. Read a low inhibition as little suppression.

Each structure is given as a SMILES string.

As for `CNC(=O)c1cc(C(C)(C)C)cc(NC(=O)Nc2ccc(Oc3ccnc(Nc4cc(OC)cc(OCCOCCOCCOC)c4)c3)c3ccccc23)c1OC` [Example 29, 5-(tert-Butyl)-2-methoxy-3-(3-(4-((2-((3-methoxy-5-(2-(2-(2-methoxyethoxy)ethoxy)-ethoxy)phenyl)amino)pyridin-4-yl)oxy)naphthalen-1-yl)ureido)-N-methylbenzamide], the half-inhibitory concentration (IC50) in data set [1] was 2.3 nM; in [2] (setting [12]), 3.5 nM; in data set [2] (setting [13]), 51.2 nM; in [3], 0.6 nM. In data set [4], this compound showed an inhibition at 5 µg/mL of 34.6%. Besides, the “cytokine levels in the anterior and posterior segments of the eyes” value in data set [5] is recorded as “significantly reduced”. The same compound registered a clearance in data set [6] of 14.2 mL/min/kg.

Take `COc1c(NC(=O)Nc2ccc(Oc3ccnc(Nc4ccccc4)c3)c3ccccc23)cc(C(C)(C)C)cc1C(=O)NC1COC1` [Example 75, 5-(tert-Butyl)-2-methoxy-N-(oxetan-3-yl)-3-(3-(4-((2-(phenylamino)pyridin-4-yl)ox)-naphthalen-1-yl)ureido)benzamide]: the values for the IC50 in data set [1], in data set [2] (setting [12]) and in data set [2] (setting [13]) were 5 nM, 14.9 nM and 56.8 nM, respectively. Further, the inhibition at 5 µg/mL in data set [4] came out at 42.6%. In addition, the “activity in TNBS-induced colitis (histopathology analysis)” value in data set [7] is recorded as “displayed substantial activity”. Further, in [5], the “cytokine levels in the anterior and posterior segments of the eyes” value was “significantly reduced”. In addition, the clearance in data set [6] is 4.4 mL/min/kg. Further, in data set [8], the “increases in revertant colonies, strain TA98” value is on record as “no dose-related or statistically significant increases in revertant colonies”. Also, in data set [9], the “increases in revertant colonies, strain TA100” value was “no dose-related or statistically significant increases in revertant colonies”. For the same compound, the “% Parent Remaining” value in data set [10] (DMSO/water 3:1, 0 min) amounted to 100%; in data set [10] (DMSO/water 3:1, 60° C., 1440 min), 99%.

With `C#CC(C)(C)c1cc(NC(=O)Nc2ccc(Oc3ccnc(Nc4cc(C)c5[nH]ncc5c4)n3)c3ccccc23)n(-c2ccc(C)cc2)n1` [Ref Cpd A], the “% Inh at 5 μM” value was 31^[†] % in data set [11] (CYP2C9, 0 min preincubation) and 66^[†] % in data set [11] (CYP2C9, 30 min preincubation).
